Measurements as given in patent US20240269298A1, “PHOSPHONYL DERIVATIVE, AND COMPOSITION AND PHARMACEUTICAL APPLICATION THEREOF” (XIZANG HAISCO PHARMACEUTICAL CO., LTD., priority 2021, published 2024).
Like-named read-outs stand apart in the source and are kept apart here.

Test system: NCI-H1975 (EGFR-L858R-T790M) cells
Assay: Inhibitory activity on proliferation of NCI-H1975 (EGFR-L858R-T790M) cells (CTG, 72 h)
Assay type: cell-based
Conditions: Homo sapiens
Procedure: NCI-H1975 (EGFR-L858R-T790M) and A431 (EGFR-WT) cells were purchased from ATCC and cultured in an incubator at 37° C. with 5% CO2, and the culture mediums were RPMI1640+10% FBS and DMEM+10% FBS, respectively. On the first day, NCI-H1975 (EGFR-L858R-T790M) and A431 (EGFR-WT) cells in the logarithmic phase were collected, and viable cells were counted using an automatic cell analyzer (countstar). The cell suspensions were adjusted with the culture mediums and plated on a 96-well cell culture plate at 1000 cells/well for NCI-H1975 (EGFR-L858R-T790M) cells and at 3000 cells/well for A431 cells. The next day, the culture mediums were aspirated, and 90 μL of fresh culture mediums and 10 μL of the compounds at different concentrations were added to each well, wherein the final concentration of DMSO in each well was 0.1%. The plate was cultured in the incubator at 37° C. with 5% CO2 for 72 hours. After 72 hours of drug treatment, 50 μL of CTG solution (promega, G7572), which was already pre-melted and equilibrated to room temperature, was added to each well, and the mixtures were uniformly mixed for 2 min using a microplate shaker. The plate was placed at room temperature for 10 min, and then […] signal values were measured using a microplate reader (PHERAstar FSX).
Surviving cells % was calculated based on Vsample/Vvehicle control×100%, wherein Vsample was the readout of the drug-treated group, and Vvehicle control was the average value of the vehicle control group. Using the origin 9.2 software and nonlinear regression model, S-shaped dose-survival curves were plotted, and IC50 values were calculated.

[1] = read-out: IC50 (value in brackets)

| SMILES | IC50 (read-out: IC50 (class symbol)) [µM] | IC50 [1] [µM] |
| --- | --- | --- |
| COc1cc(N2CCC(N3CCC(CN4CCN(c5ccc6c(c5)C(=O)N(C5CCC(=O)NC5=O)C6=O)CC4)CC3)CC2)c(-c2cnn(C)c2)cc1Nc1ncc(Br)c(Nc2ccc3nccnc3c2P(C)(C)=O)n1 (stereo not drawn) [Trifluoroacetate of compound 19, 5-(4-((1′-(4-((5-bromo-4-((5-(dimethylphosphoryl)quinoxalin-6-yl)amino)pyrimidin-2-yl)amino)-5-methoxy-2-(1-methyl-1H-pyrazol-4-yl)phenyl)-[1,4′-bipiperidin]-4-yl)methyl)piperazin-1-yl)-2-(2,6-dioxopiperidin-3-yl)isoindoline-1,3-dione] | < 0.1 | 0.042 |
| COc1cc(N2CCC(N3CCC(N4CCC5(CCCN(c6ccc7c(c6)C(=O)N(C6CCC(=O)NC6=O)C7=O)C5)CC4)CC3)CC2)c(-c2cnn(C)c2)cc1Nc1ncc(Cl)c(Nc2ccc3nccnc3c2P(C)(C)=O)n1 (stereo not drawn) [Compound 15, 5-(9-(1′-(4-((5-chloro-4-((5-(dimethylphosphoryl)quinoxalin-6-yl)amino)pyrimidin-2-yl)amino)-5-methoxy-2-(1-methyl-1H-pyrazol-4-yl)phenyl)-[1,4′-bipiperidin]-4-yl)-2,9-diazaspiro[5.5]undecan-2-yl)-2-(2,6-dioxopiperidin-3-yl)isoindoline-1,3-dione] | < 0.1 | 0.066 |
| COc1cc(N2CCC(CN3CCN(c4ccc(NC5CCC(=O)NC5=O)cc4F)CC3)CC2)c(-c2cnn(C)c2)cc1Nc1ncc(Cl)c(Nc2ccc(C3CC3)cc2P(C)(C)=O)n1 (stereo not drawn) [Compound 158, 3-((4-(4-((1-(4-((5-chloro-4-((4-cyclopropyl-2-(dimethylphosphoryl)phenyl)amino)pyrimidin-2-yl)amino)-5-methoxy-2-(1-methyl-1H-pyrazol-4-yl)phenyl)piperidin-4-yl)methyl)piperazin-1-yl)-3-fluorophenyl)amino)piperidine-2,6-dione] | < 0.1 | 0.026 |
| COc1cc(N2CCC(CN3CCC4(CC3)CCN(c3ccc(C(=O)NC5CCC(=O)NC5=O)nc3)CC4)CC2)c(-c2cnn(C)c2)cc1Nc1ncc(Cl)c(Nc2ccc(-c3ccccc3)cc2P(C)(C)=O)n1 (stereo not drawn) [Compound 70, 5-(9-((1-(4-((5-chloro-4-((3-(dimethylphosphoryl)-[1,1′-biphenyl]-4-yl)amino)pyrimidin-2-yl)amino)-5-methoxy-2-(1-methyl-1H-pyrazol-4-yl)phenyl)piperidin-4-yl)methyl)-3,9-diazaspiro[5.5]undecan-3-yl)-N-(2,6-dioxopiperidin-3-yl)picolinamide] | < 0.1 | 0.039 |
| COc1cc(N2CCC(CN3CCN(c4ccc(C5CCC(=O)NC5=O)c(F)c4)CC3)CC2)c(-c2cnn(C)c2)cc1Nc1ncc(Cl)c(Nc2ccc(C3CC3)cc2P(C)(C)=O)n1 (stereo not drawn) [Compound 153, 3-(4-(4-((1-(4-((5-chloro-4-((4-cyclopropyl-2-(dimethylphosphoryl)phenyl)amino)pyrimidin-2-yl)amino)-5-methoxy-2-(1-methyl-1H-pyrazol-4-yl)phenyl)piperidin-4-yl)methyl)piperazin-1-yl)-2-fluorophenyl)piperidine-2,6-dione] | < 0.1 | 0.073 |
| COc1cc(N2CCC3(CC2)CN(CC2CCN(c4cc5c(cc4F)C(=O)N(C4CCC(=O)NC4=O)C5=O)CC2)C3)c(-c2cnn(C)c2)cc1Nc1ncc(Cl)c(Nc2ccc(-c3ccccc3)cc2P(C)(C)=O)n1 (stereo not drawn) [Compound 94, 5-(4-((7-(4-((5-chloro-4-((3-(dimethylphosphoryl)-[1,1′-biphenyl]-4-yl)amino)pyrimidin-2-yl)amino)-5-methoxy-2-(1-methyl-1H-pyrazol-4-yl)phenyl)-2,7-diazaspiro[3.5]nonan-2-yl)methyl)piperidin-1-yl)-2-(2,6-dioxopiperidin-3-yl)-6-fluoroisoindoline-1,3-dione] | < 0.1 | 0.077 |
| COc1cc(N2CCC(CN3CCN(c4ccc(C5CCC(=O)NC5=O)cc4)CC3)CC2)c(-c2cnn(C)c2)cc1Nc1ncc(Cl)c(Nc2ccc(-c3ccccc3)cc2P(C)(C)=O)n1 (stereo not drawn) [Compound 155, 3-(4-(4-((1-(4-((5-chloro-4-((3-(dimethylphosphoryl)-[1,1′-biphenyl]-4-yl)amino)pyrimidin-2-yl)amino)-5-methoxy-2-(1-methyl-1H-pyrazol-4-yl)phenyl)piperidin-4-yl)methyl)piperazin-1-yl)phenyl)piperidine-2,6-dione] | < 0.1 | 0.043 |
| COc1cc(N2CCC3(CCN(CC4CCN(c5ccc6c(c5)C(=O)N(C5CCC(=O)NC5=O)C6=O)CC4)CC3)CC2)c(-c2cnn(C)c2)cc1Nc1ncc(Br)c(Nc2ccc3nccnc3c2P(C)(C)=O)n1 (stereo not drawn) [Trifluoroacetate of compound 20, 5-(4-((9-(4-((5-bromo-4-((5-(dimethylphosphoryl)quinoxalin-6-yl)amino)pyrimidin-2-yl)amino)-5-methoxy-2-(1-methyl-1H-pyrazol-4-yl)phenyl)-3,9-diazaspiro[5.5]undecan-3-yl)methyl)piperidin-1-yl)-2-(2,6-dioxopiperidin-3-yl)isoindoline-1,3-dione] | < 0.1 | 0.014 |
| COc1cc(N2CCC(CN3CCCC4(CCN(c5ccc6c(c5)C(=O)N(C5CCC(=O)NC5=O)C6=O)CC4)C3)CC2)c(-c2cnn(C)c2)cc1Nc1ncc(Cl)c(Nc2ccc(-c3ccccc3)cc2P(C)(C)=O)n1 (stereo not drawn) [Compound 49, 5-(2-((1-(4-((5-chloro-4-((3-(dimethylphosphoryl)-[1,1′-biphenyl]-4-yl)amino)pyrimidin-2-yl)amino)-5-methoxy-2-(1-methyl-1H-pyrazol-4-yl)phenyl)piperidin-4-yl)methyl)-2,9-diazaspiro[5.5]undecan-9-yl)-2-(2,6-dioxopiperidin-3-yl)isoindoline-1,3-dione] | 0.1 to 0.5 | 0.266 |
| COc1cc(N2CCC(CN3CCN(c4ccc(C5CCC(=O)NC5=O)cc4)CC3)CC2)c(-c2cnn(C)c2)cc1Nc1ncc(Cl)c(Nc2ccccc2P(C)(C)=O)n1 (stereo not drawn) [Compound 135, 3-(4-(4-((1-(4-((5-chloro-4-((2-(dimethylphosphoryl)phenyl)amino)pyrimidin-2-yl)amino)-5-methoxy-2-(1-methyl-1H-pyrazol-4-yl)phenyl)piperidin-4-yl)methyl)piperazin-1-yl)phenyl)piperidine-2,6-dione] | < 0.1 | 0.082 |

Further lines, results first:

| IC50 (read-out: IC50 (class symbol)) [µM] | IC50 [1] [µM] | SMILES |
| --- | --- | --- |
| < 0.1 | 0.06 | COc1cc(N2CCC(N3CCN(c4ccc5c(c4)C(=O)N(C4CCC(=O)NC4=O)C5=O)CC3)CC2)c(-c2cnn(C)c2)cc1Nc1ncc(Br)c(Nc2ccccc2P(C)(C)=O)n1 (stereo not drawn) [Compound 114, 5-(4-(1-(4-((5-bromo-4-((2-(dimethylphosphoryl)phenyl)amino)pyrimidin-2-yl)amino)-5-methoxy-2-(1-methyl-1H-pyrazol-4-yl)phenyl)piperidin-4-yl)piperazin-1-yl)-2-(2,6-dioxopiperidin-3-yl)isoindoline-1,3-dione] |
| 0.1 to 0.5 | 0.111 | COc1cc(N2CCN(c3ccc4c(c3)C(=O)N(C3CCC(=O)NC3=O)C4=O)CC2)c(-c2cnn(C)c2)cc1Nc1ncc(Br)c(Nc2ccccc2P(C)(C)=O)n1 (stereo not drawn) [Compound 169, 5-(4-(4-((5-bromo-4-((2-(dimethylphosphoryl)phenyl)amino)pyrimidin-2-yl)amino)-5-methoxy-2-(1-methyl-1H-pyrazol-4-yl)phenyl)piperazin-1-yl)-2-(2,6-dioxopiperidin-3-yl)isoindoline-1,3-dione] |
| < 0.1 | 0.08 | COc1cc(N2CCC(N3CCC(CN4CCN(c5ccc6c(c5)C(=O)N(C5CCC(=O)NC5=O)C6=O)CC4)CC3)CC2)c(-c2cnn(C)c2)cc1Nc1ncc(Br)c(Nc2ccc(-c3ccccc3)cc2P(C)(C)=O)n1 (stereo not drawn) [Compound 43, 5-(4-((1′-(4-((5-bromo-4-((3-(dimethylphosphoryl)-[1,1′-biphenyl]-4-yl)amino)pyrimidin-2-yl)amino)-5-methoxy-2-(1-methyl-1H-pyrazol-4-yl)phenyl)-[1,4′-bipiperidin]-4-yl)methyl)piperazin-1-yl)-2-(2,6-dioxopiperidin-3-yl)isoindoline-1,3-dione] |
| < 0.1 | 0.073 | COc1cc(N2CCC(N3CCN(c4ccc5c(c4)C(=O)N(C4CCC(=O)NC4=O)C5=O)CC3)CC2)c(-c2cnn(C)c2)cc1Nc1ncc(Cl)c(Nc2ccccc2P(C)(C)=O)n1 (stereo not drawn) [Compound 115, 5-(4-(1-(4-((5-chloro-4-((2-(dimethylphosphoryl)phenyl)amino)pyrimidin-2-yl)amino)-5-methoxy-2-(1-methyl-1H-pyrazol-4-yl)phenyl)piperidin-4-yl)piperazin-1-yl)-2-(2,6-dioxopiperidin-3-yl)isoindoline-1,3-dione] |
| < 0.1 | 0.016 | COc1cc(N2CCN(C[C@H]3CCN(c4ccc5c(c4)C(=O)N(C4CCC(=O)NC4=O)C5=O)C3)CC2)c(-c2cnn(C)c2)cc1Nc1ncc(Br)c(Nc2ccccc2P(C)(C)=O)n1 (stereo partly drawn) [Compound 122, 5-((R)-3-((4-(4-((5-bromo-4-((2-(dimethylphosphoryl)phenyl)amino)pyrimidin-2-yl)amino)-5-methoxy-2-(1-methyl-1H-pyrazol-4-yl)phenyl)piperazin-1-yl)methyl)pyrrolidin-1-yl)-2-(2,6-dioxopiperidin-3-yl)isoindoline-1,3-dione] |
